In publication PMC11156899, “High-throughput screening unveils nitazoxanide as a potent PRRSV inhibitor by targeting NMRAL1” (Nature Communications, 2024):

Assays:
PRRSV VR2332 = assay: EC50 against VR-2332 strain on PAM cells; assay type: cell-based; conditions: Porcine reproductive and respiratory syndrome virus
Text: Supplementary Fig. 3: Cytotoxicity and Antiviral Efficacy of NTZ.
PRRSV capsid protein positive
(primary antibody SR30, green) and nuclei (DAPI, blue).

PRRSV GSWW-18 strain [1] = assay: In vivo antiviral effect in swine infected with GSWW-18 strain; set-up: species or system pig; conditions: for PRRSV dynamics in blood within 24 h: 48 h post infection
PRRSV GSWW-18 strain [2] = assay: PRRSV transmission to co-housed pigs; assay type: in vivo, pig; conditions: 25 mg/kg, from 0 dpi; two co-house animals uninfected
Method: Although the replication mechanism of PRRSV in blood is not fully understood, viremia is an undoubted marker of disease severity[22],[23]. […] On the second day post-infection, we administered NTZ at dosages of 10 mg/kg or 5 mg/kg and monitored the dynamics of PRRSV in the blood within 24 h (Fig. 4b). We observed that NTZ acted swiftly. […] Further experiments explored NTZ’s role in viral transmission (Fig. 4c).
Fig. 4 NTZ inhibition of PRRSV shedding and transmission. a Viral load in blood, and shedding in oronasal and anal swabs. Viral load or shedding in blood and oronasal swabs were quantified from 2 to 4 dpi, and in anal swabs from 2 to 5 dpi. Viral copy numbers for each pig during this period are presented. b NTZ suppression of PRRSV proliferation in blood. […] Parameters were calculated using a non-compartmental analysis (NCA). Eighteen pigs were evenly divided into three dosage groups (n = 6), each housed separately, fasted for 12 h before the experiment, and monitored by professional veterinarians for welfare and enclosure cleaning to prevent coprophagia. g Tissue distribution of NTZ’s main metabolite TIZ. Tissues were collected as per Method Pharmacokinetics and Tissue Distribution of NTZ, quantifying TIZ content at various times (n = 2). […]

Nsp1α = assay: Differential scanning fluorimetry, purified Nsp1α; assay type: binding, PRRSV GSWW-18 strain; conditions: DSF
Method: For DSF, 20 μM purified NSP1α and NSP12 protein from the GSWW-18 strain, as well as NMRAL1 protein (Accession: A0A0D9R9W0) was thoroughly mixed with 20 μM SYPRO Orange (S6650, Thermo) in a buffer containing 10 mM HEPES and 200 mM NaCl at pH 7.20. An equal volume of 100 μM NTZ, dissolved in the same buffer, was added and the mixture was filtered through a 0.22 μm filter. For controls, an equivalent volume of DMSO was used. […] DSF experiments were monitored using the QuantStudio™ 5 Real-Time PCR System (Thermo). Data were analyzed using DSFworld[42].
Supplementary Fig. 10: The Affinity of Nsp1α and Nsp12 with TIZ is Lower Than That of NMRAL1.
(a) The KD value of NMRAL1 obtained through the Affinity fit model.
(b) The KD value of Nsp1α determined using the Kinetics fit model.
(c) The KD value of Nsp1α obtained through the Affinity fit model.

PRRSV VR-2332 = assay: Time-of-addition and lifecycle-stage experiments in Marc-145 cells; assay type: cell-based, Porcine Reproductive and Respiratory Syndrome Virus
Text: The pronounced antiviral phenotype led us to explore the mechanism behind NTZ’s inhibition of PRRSV proliferation. We adopted a classic approach of administering the drug at various time points to study NTZ’s effect on the PRRSV lifecycle (Supplementary Fig. 9a). […] Identifying the target protein of NTZ became imperative. Using the isothermal shift assay (iTSA), we discovered 26 potential NTZ targets (Fig. 5a). Further, Cellular Thermal Shift Assay-Western Blot (CETSA-WB) temperature range (TR) experiment indicated Glycine amidinotransferase mitochondrial (GATM), NMRAL1, and PRRSV proteins NSP1α and NSP12 as potential NTZ targets (Fig. 5b, c). The compound concentration range (CCR) experiment also supported these four proteins as potential NTZ targets (Fig. 5d).
Supplementary Fig. 9: NTZ Inhibition of PRRSV Replication Stages.
(a) Schematic of the classic experimental approach of adding the drug at different time points. […]
(c) Viral inactivation (dark purple): PRRSV was pre-incubated with the compound for 1 hour in the incubator before transferring to monolayer Marc-145 cells, followed by medium change after 2 hours. […] All samples were collected and analyzed at 48 […]
hours. […] NS indicates P > 0.0332, calculated via two-way ANOVA with Dunnett’s multiple-comparison test (b and c); P-values < 0.0332 were considered significant.

[3] = treatment group, only 25 mg/kg, P < 0.0001

## CC(=O)Oc1ccccc1C(=O)Nc1ncc([N+](=O)[O-])s1 [Nitazoxanide]
PRRSV VR2332
  EC50: ~0.67 µM
PRRSV GSWW-18 strain [1]; 5 mg/kg oral at 0 h and 12 h
  PRRSV dynamics in blood within 24 h: viral loads decreased from 2 h to 8 h post administration
PRRSV GSWW-18 strain [1]; 10 mg/kg oral at 0 h and 12 h
  PRRSV dynamics in blood within 24 h: more pronounced inhibition
PRRSV GSWW-18 strain [1]; 25 mg/kg oral
  body temperature and weight: alleviated the rise in body temperature and weight loss
PRRSV GSWW-18 strain [1]; 25 mg/kg oral, prophylactic and therapeutic groups, vs MOCK
  lung PRRSV-positive cells (IHC): fewer lung PRRSV-positive cells
PRRSV GSWW-18 strain [1]; 25 mg/kg, treatment and prophylactic groups
  clinical symptoms by day 7: no apparent clinical symptoms
PRRSV GSWW-18 strain [1]; a specific dose of NTZ, PO BID 3 days
  interstitial pneumonia with lobar consolidation: significantly mitigated
PRRSV GSWW-18 strain [1]; pig, in vivo
  fatalities within 14 days: no fatalities
PRRSV GSWW-18 strain [1]; prophylactic and treatment groups, P < 0.0332
  PRRSV replication in ManLNs, lungs and tonsils: significantly reduced
PRRSV GSWW-18 strain [1]; prophylactic group, 5 mg/kg, P = 0.0033
  PRRSV viral load in blood: significantly reduced
PRRSV GSWW-18 strain [1]; prophylactic group, 10 mg/kg and 25 mg/kg, P < 0.0001
  viral copy numbers in BALF: significant effects
PRRSV GSWW-18 strain [1]; prophylactic group, 10 mg/kg, P = 0.0012
  oronasal shedding: significantly lowered
PRRSV GSWW-18 strain [1]; prophylactic group, even at 25 mg/kg
  anal shedding: did not reduce
PRRSV GSWW-18 strain [1]; [3]
  viral copy numbers in BALF: achieved statistical significance
  virus in ILNs: significantly suppressed
PRRSV GSWW-18 strain [2]
  PRRSV transmission to co-housed animals: can help limit PRRSV transmission
Nsp1α
  decrease in the Tm value: 3.75 °C
PRRSV VR-2332; added 16 h post viral inoculation
  PRRSV proliferation, late addition: significantly inhibited PRRSV proliferation
PRRSV VR-2332; adsorption, entry, replication, release
  stage of PRRSV lifecycle affected: primarily affects PRRSV replication
